# Values joined by “and” are separate entries in the source; they are usually repeats but may differ in a detail not shown here. Identical values can stand only once.
# Assay: in-vitro headspace GC-MS odor-neutralizing test, Relative Odor Activity Value (ROAV)
# Settings: recreated garlic odor, 0.05% active concentration, vs control, negative value indicates no reduction
# Experimental: The odor-neutralizing or deodorization activity of target actives was evaluated against a recreated garlic odor using an in-vitro headspace gas chromatography-mass spectrometry (GC-MS) method described below. A mixture of five sulfur compounds (ethanethiol, 1-propanethiol, […], methyl allyl disulfide and […]) was used to simulate a garlic odor. […] [See e.g., J. Taucher, et al. J. Agric. Food Chem. (1996), 44 (12), 3778-3782; F. Suarez, et al. Am. J. Physiol. Gastrointest. Liver Physiol. (1999), 276: G425-G430; I. Laakso, et al. Planta Med. (1989), 55, 257-261; X. J. Cai, et al. J. Agric. Food Chem. (1995), 43, 1751-1753; T. Minami, et al. J. Food Sci. (1989), 54, 763-765.]
# The following procedure and instrumentation were used to evaluate the relative odor-neutralizing activity of various compounds.
# 1) Purge product base (e.g., mouthrinse or dental solution) with nitrogen for 10 minutes. 2) Purge all sample preparation vials with stir bars inside for 1 minute. 3) Add 3960 μl product base to control vials (4 ml capacity) and 3560 μl product base to test sample vials (4 ml capacity). 4) Make garlic stock by mixing the following components in order: 600 μl ethanol; 500 μl ethanethiol; 80 μl 1-propanethiol; 30 μl […]; 20 μl methyl allyl disulfide; 70 μl […]. 5) Add 40 ul of garlic stock to each control and test sample vial. 6) Stir all samples to mix product base and garlic stock for a total time of 20 min. To each test sample vial, add 400 μl of test active after 15 min. of stirring and allow test active mix in and react for 5 min. 7) After mixing, transfer 50 μl each of control sample and test sample to nitrogen purged GC headspace vials. 8) Place control and test sample vials on headspace autosampler for GC analysis. Each sample is equilibrated at 32° C. for 3 min. before injection into the GC instrument.
# A Relative OAV is calculated for each component by dividing its peak area by its odor threshold value. Odor threshold values for these compounds are reported in the literature. […] A negative value indicates no reduction in ROAV.
Compound,% Reduction of ROAV [%],other results
Cc1ccc(C=O)cc1 [4-methylbenzaldehyde],3.67,
CC1=CC(=O)[C@@H](C(C)C)CC1 [(−) Piperitone],10.19,
"COc1ccc(C=O)cc1 [Anisaldehyde, 4-methoxybenzaldehyde]",20.76,% Reduction of ROAV (listed as 4-Methoxybenzaldehyde (Anisaldehyde)): 20.76%; % Reduction of ROAV (listed as anisaldehyde): 20.76% and > 20%
O=CC=Cc1ccccc1 [Cinnamaldehyde],10.73,
"CC(C)=CCCC(C)=CC=O [Citral, reference compound]",−19.54,
"CCc1occc(=O)c1O [Ethyl maltol, reference compound]",−3.46,
"O=Cc1ccc2c(c1)OCO2 [Heliotropin, reference compound]",−2.92,
"CCCCCC/C(C=O)=C\c1ccccc1 [Hexyl cinnamaldehyde, reference compound]",−1.19,
"COc1ccc(C=O)cc1OC [Methyl vanillin (Veratraldehyde), 3,4-Dimethoxybenzaldehyde]",4.45,
"CCCCCCCC=O [Octanal, reference compound]",−28.76,% Reduction of ROAV (listed as octanal): no reduction of ROAV
"O=Cc1ccccc1O [Salicylaldehyde, 2-Hydroxybenzaldehyde, reference compound]",−5.87,
"COc1ccc(C=CC=O)cc1 [para-Methoxycinnamaldehyde, reference compound]",−0.49,
CC(=O)/C=C/C1=C(C)CCCC1(C)C [β-Ionone],17.56,
L(−) Carvone,3.27,

# Reference: patent publication US20220257484A1, “WHOLE MOUTH MALADOR CONTROL BY A COMBINATION OF ANTIBACTERIAL AND DEODORIZING AGENTS” (The Procter & Gamble Company, priority 2010, published 2022)
